Assay results from patent US20230295213A1, “CD73 INHIBITORS AND PHARMACEUTICAL USES THEREOF” (RISEN (SUZHOU) PHARMA TECH CO., LTD., priority 2018, published 2023).

Key:
[1] = Pharmacokinetic evaluation in ICR mice, intravenous; type: in vivo; conditions: mouse; ICR male mice, 1.0 mg/kg intravenous, plasma
Method: A test compound (1.0 mg/kg) was administered to fasted ICR male mice via intravenous injection, and blood samples were collected at time points of 0.08, 0.25, 0.5, 1, 2, 4, 6, 8 and 24 h after the administration. Plasma sample was separated by centrifugation (8000 rpm) and stored at −80° C. until the sample was analyzed. Concentrations of the test compound in the plasma were determined by HPLC-MS/MS: the plasma was dispensed into appropriate tubes containing internal standard and methanol or acetonitrile. The tubes were mixed vigorously for 3 minutes to achieve deproteinization and then centrifuged at 8000 rpm for 5 minutes. The supernatant was transferred to an autosampler vial, injected into the chromatographic system, and quantified on MS/MS detector. Pharmacokinetic parameters including AUC0-t, Cmax, Tmax, t1/2, MRT, Cl and Vd were calculated using WinNonlin 6.3 software. Table 3 summarizes key PK parameters for test compounds (AUC(0-t): the area under the curve from time 0 to time t; AUC(0-∞): the area under the curve from time 0 to infinity; t1/2: Half-life; CL: clearance; C0: the concentration of drug in blood if the drug molecules enter the circulation and are distributed immediately (i.e., at time 0)).

[2] = target: Recombinant human 5′-nucleotidase (hCD73) (Homo sapiens (Human), UniProt P21589); assay: CD73 enzyme inhibition assay (hCD73, AMP substrate, PiColorLock Gold phosphate detection); type: biochemical; conditions: hCD73 1 nM solution, AMP 60 μM solution, 37° C. 20 min, absorbance 635 nm
Sequence of Recombinant human 5′-nucleotidase (hCD73) (P21589 27-574): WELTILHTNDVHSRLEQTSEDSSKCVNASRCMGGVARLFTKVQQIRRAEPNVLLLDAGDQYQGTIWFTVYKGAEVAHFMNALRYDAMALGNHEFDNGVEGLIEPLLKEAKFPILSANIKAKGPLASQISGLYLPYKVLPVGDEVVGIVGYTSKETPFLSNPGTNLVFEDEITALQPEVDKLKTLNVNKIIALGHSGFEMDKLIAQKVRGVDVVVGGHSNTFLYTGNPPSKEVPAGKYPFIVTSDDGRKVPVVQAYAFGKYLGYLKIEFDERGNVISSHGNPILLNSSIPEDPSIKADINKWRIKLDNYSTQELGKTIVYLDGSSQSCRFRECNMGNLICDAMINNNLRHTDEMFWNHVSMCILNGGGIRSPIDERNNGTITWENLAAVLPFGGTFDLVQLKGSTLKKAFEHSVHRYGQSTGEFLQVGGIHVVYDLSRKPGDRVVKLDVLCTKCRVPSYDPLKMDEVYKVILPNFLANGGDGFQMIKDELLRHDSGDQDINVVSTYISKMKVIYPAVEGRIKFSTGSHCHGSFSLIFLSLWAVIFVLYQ
Method: Test compound solution preparation: Stock solution of a test compound was prepared in DMSO at 10 mM concentration. A series of preset 10-concentration solutions of a test compound were prepared by diluting the stock solution in 5-fold gradient dilution with DMSO.
Assay buffer (lx): 20 mm Tris, 25 mM NaCl, 1 mM MgCl2, pH 7.5, 0.005% Tween-20 (freshly prepared, and ready for use).
An aliquot of 0.25 μL of compound solution or DMSO (blank control) was added to each test well of a micro well plate. Recombinant human 5′-nucleotidase (hCD73) was diluted to 1 nM in assay buffer; and an aliquot of 25 μL hCD73 (1 nM) solution was added to the corresponding wells of the plate. The contents of the well were well-mixed, and the plate was covered with sealing film, centrifuged at 1000 rpm for 30 sec., followed by incubation at room temperature for 15 min. AMP, the substrate, was diluted to 60 μM concentration in the assay buffer. To each reaction well was added 25 μL of AMP solution. After mixing well, the plate was covered with sealing film, centrifuged at 1000 rpm for 30 sec., and incubated at 37° C. for 20 min. The absorbance signal (end point) was measured on SPARK plate reader at 635 nm (See PiColorLock™ Gold Phosphate Detection System (Abcam) test kit for reference).
The reaction wells containing CD73 enzyme, substrate AMP and DMSO (no compound) were used as positive control, and the reaction wells containing substrate AMP and DMSO but no CD73 enzyme were used as negative control. The percent (%) inhibition at each concentration of compound was calculated based on and relative to the signal in the High and Low control wells contained within each assay plate. The High control wells were considered as 0% inhibition, and the low control wells, which didn't contain any compound but rather DMSO (final concentration=0.5%), as 100% inhibition. IC50 values were obtained using GraphPad Prism software.

[3] = target: CD73 (Homo sapiens (Human), UniProt P21589); assay: CD73 enzyme inhibition assay (Malachite Green Phosphate Detection Kit); type: biochemical; conditions: for IC50: CD73 protein 0.5 μg/mL (2x), Tris-HCl pH 7.3, OD 620 nm, read-out: Potency (IC50 class), inhibitory activity in CD73 enzyme assay
Sequence of CD73 (P21589 27-574): as above
Method: To evaluate the inhibitory effect of selected compounds on CD73, Malachite Green Phosphate Detection Kit (R&D, Cat #DY996) was used. Briefly, compounds were dissolved and diluted to the desired concentration using phosphate-free buffer (Tris-HCl, pH 7.3). 25 μL of the compound solution was added to an equal volume of CD73 protein solution (2× concentration, 0.5 μg/mL, Novoprotein, Cat #C446), followed by a 5-minute incubation at room temperature. 10 μL of Malachite Green Reagent A was added to each well, mixed thoroughly and incubated for 10 minutes at room temperature. 10 μL of Malachite Green Reagent B was then added to each well, mixed thoroughly and incubated for 20 minutes at room temperature. Finally, the optical density of each well was determined using a microplate reader set to 620 nm.

SMILES	AUC(0-inf) [1] [ng·h/mL]	AUC(0-t) [1] [ng·h/mL]	Cmax [1] [ng/mL]	half-life [1] [h]	IC50 [2] [nM]	inhibitory activity in the CD73 enzyme assay ([3]; qualitative statement)	IC50 [3] [nM]
O=P(O)(O)CP(=O)(O)OC[C@H]1O[C@@H](n2cnc3c(N4CCC5(CC4)Cc4ccccc4C5)nc(Cl)nc32)[C@@H](O)C1O (stereo partly drawn) [d-21]	7450	7430	12200	0.898	1.42	–	–
O=P(O)(O)CP(=O)(O)CC[C@H]1O[C@@H](n2cnc3c(N4CCC5(CCCCC5)C4)nc(Cl)nc32)[C@@H](O)C1O (stereo partly drawn) [a-31]	–	–	–	–	–	showed inhibitory activity	–
O=P(O)(O)CP(=O)(O)OC[C@H]1O[C@@H](n2cnc3c(NC4C5CC6CC(C5)CC4C6)nc(Cl)nc32)[C@@H](O)C1O (stereo partly drawn) [Compound 17]	–	–	–	–	–	–	< 10
O=P(O)(O)CP(=O)(O)OC[C@H]1O[C@@H](n2cnc3c(N4CCC5(CCCCC5)C4)nc(Cl)nc32)[C@@H](O)C1O (stereo partly drawn) [Compound b, reference compound]	9120	9110	15200	0.85	1.08	–	–
O=P(O)(O)CP(=O)(O)OC[C@H]1O[C@@H](n2cnc3c(Nc4ccc5cc6ccccc6cc5c4)nc(Cl)nc32)C(O)C1O (stereo partly drawn) [Compound 20]	–	–	–	–	–	–	10 to 100
CC1(C)OC2C(O1)[C@@H](COP(=O)(O)CP(=O)(O)O)O[C@H]2n1cnc2c(NCc3ccccc3)nc(Cl)nc21 (stereo partly drawn) [Compound 2]	–	–	–	–	–	–	10 to 100
CCCCCOC(=O)Nc1nc(Cl)nc2c1ncn2[C@@H]1O[C@H](COP(=O)(O)CP(=O)(O)O)C(O)C1O (stereo partly drawn) [Compound 8]	–	–	–	–	–	–	10 to 100
CCCCCCCCCCCCN(CCCCCCCCCCCC)c1nc(Cl)nc2c1ncn2[C@@H]1O[C@H](COP(=O)(O)CP(=O)(O)O)C(O)[C@@H]1O (stereo partly drawn) [Compound 19]	–	–	–	–	–	–	> 100
O=P(O)(O)CP(=O)(O)OC[C@H]1O[C@@H](n2cnc3c(N4CC(c5ccccc5)C(c5ccccc5)C4)nc(Cl)nc32)[C@@H](O)C1O (stereo partly drawn) [d-36]	–	–	–	–	1.86	–	–
O=C(CC12CC3CC(CC(C3)C1)C2)Nc1nc(Cl)nc2c1ncn2[C@@H]1O[C@H](COP(=O)(O)CP(=O)(O)O)C(O)[C@@H]1O (stereo partly drawn) [Compound 16]	–	–	–	–	–	–	10 to 100
O=P(O)(O)CP(=O)(O)OC[C@H]1O[C@@H](n2cnc3c(Nc4ccc5ccccc5c4)nc(Cl)nc32)C(O)C1O (stereo partly drawn) [Compound 12]	–	–	–	–	–	–	10 to 100
C[C@H](Nc1cc(Cl)nc2c1cnn2[C@@H]1O[C@H](COP(=O)(O)CP(=O)(O)O)[C@@H](O)[C@H]1O)c1ccccc1F [Compound a, AB680, reference compound]	24200	24000	11700	3.41	–	–	–

Further lines, results first:

AUC(0-inf) [1] [ng·h/mL]	AUC(0-t) [1] [ng·h/mL]	Cmax [1] [ng/mL]	half-life [1] [h]	IC50 [2] [nM]	inhibitory activity in the CD73 enzyme assay ([3]; qualitative statement)	IC50 [3] [nM]	SMILES
6680	6670	7840	0.841	–	–	–	O=P(O)(O)CP(=O)(O)OC[C@H]1O[C@@H](n2cnc3c(N4CCC5(CCCc6ccccc65)C4)nc(Cl)nc32)[C@@H](O)C1O (stereo partly drawn) [d-6]
–	–	–	–	0.75	–	–	O=P(O)(O)CP(=O)(O)OC[C@H]1O[C@@H](n2cnc3c(N4CCC5(CCc6ccccc65)C4)nc(Cl)nc32)[C@@H](O)C1O (stereo partly drawn) [d-8]
6360	6360	8850	0.556	0.47	–	–	O=P(O)(O)CP(=O)(O)OC[C@H]1O[C@@H](n2cnc3c(N4CC5(CCc6ccccc65)C4)nc(Cl)nc32)[C@@H](O)C1O (stereo partly drawn) [d-1]
197000	107000	12500	21.3	1.8	–	–	O=P(O)(O)CP(=O)(O)OC[C@H]1O[C@@H](n2cnc3c(N4CC5(CCCCC5)c5ccccc54)nc(Cl)nc32)[C@@H](O)C1O (stereo partly drawn) [d-7]
121000	94000	15600	12.2	1.29	–	–	O=P(O)(O)CP(=O)(O)OC[C@H]1O[C@@H](n2cnc3c(N4CC5(CCC5)c5ccccc54)nc(Cl)nc32)[C@@H](O)C1O (stereo partly drawn) [d-20]
22500	19700	10700	2.95	0.73	–	–	O=P(O)(O)CP(=O)(O)OC[C@H]1O[C@@H](n2cnc3c(N4CC5(Cc6ccccc6C5)C4)nc(Cl)nc32)[C@@H](O)C1O (stereo partly drawn) [d-9]
